According to PubChem BioAssay (NCI):
“And” between values parts separate entries of the source, which are not always exact repeats. Identical values can stand only once.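 Compound exposure: 48 hours, 5 concentrations, 96-well plates. GI50 marks 50% less growth. The concentration for full growth arrest is given as TGI.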

Key:
Test in all cases: NCI tumour cell line growth inhibition, 48 h
786-0 renal = test system: 786-0 renal
A498 renal = test system: A498 renal
ACHN renal = test system: ACHN renal
BT-549 breast = test system: BT-549 breast
CAKI-1 renal = test system: CAKI-1 renal
CCRF-CEM leukemia = test system: CCRF-CEM leukemia
COLO 205 colon = test system: COLO 205 colon
DU-145 prostate = test system: DU-145 prostate
EKVX NSCLC = test system: EKVX NSCLC
HCT-116 colon = test system: HCT-116 colon
HCT-15 colon = test system: HCT-15 colon
HL-60(TB) leukemia = test system: HL-60(TB) leukemia
HOP-62 NSCLC = test system: HOP-62 NSCLC
HS 578T breast = test system: HS 578T breast
HT29 colon = test system: HT29 colon
IGROV1 ovarian = test system: IGROV1 ovarian
K-562 leukemia = test system: K-562 leukemia
KM12 colon = test system: KM12 colon
LOX IMVI melanoma = test system: LOX IMVI melanoma
M14 melanoma = test system: M14 melanoma
MALME-3M melanoma = test system: MALME-3M melanoma
MCF7 breast = test system: MCF7 breast
MDA-MB-231 breast = test system: MDA-MB-231 breast
MDA-MB-435 = test system: MDA-MB-435
MDA-N = test system: MDA-N
MOLT-4 leukemia = test system: MOLT-4 leukemia
NCI-H226 lung = test system: NCI-H226 lung
NCI-H23 lung = test system: NCI-H23 lung
NCI-H460 lung = test system: NCI-H460 lung
NCI/ADR-RES ovarian = test system: NCI/ADR-RES ovarian
OVCAR-3 ovarian = test system: OVCAR-3 ovarian
OVCAR-5 ovarian = test system: OVCAR-5 ovarian
OVCAR-8 ovarian = test system: OVCAR-8 ovarian
PC-3 prostate = test system: PC-3 prostate
RPMI-8226 leukemia = test system: RPMI-8226 leukemia
RXF 393 renal = test system: RXF 393 renal
SF-268 CNS = test system: SF-268 CNS
SF-295 CNS = test system: SF-295 CNS
SF-539 CNS = test system: SF-539 CNS
SK-MEL-2 melanoma = test system: SK-MEL-2 melanoma
SK-MEL-28 melanoma = test system: SK-MEL-28 melanoma
SK-MEL-5 melanoma = test system: SK-MEL-5 melanoma
SK-OV-3 ovarian = test system: SK-OV-3 ovarian
SN12C renal = test system: SN12C renal
SNB-19 CNS = test system: SNB-19 CNS
SR leukemia = test system: SR leukemia
SW-620 colon = test system: SW-620 colon
TK-10 renal = test system: TK-10 renal
U251 CNS = test system: U251 CNS
UACC-257 melanoma = test system: UACC-257 melanoma
UACC-62 melanoma = test system: UACC-62 melanoma
A549 NSCLC = test system: A549 NSCLC
HCC-2998 colon = test system: HCC-2998 colon
NCI-H522 lung = test system: NCI-H522 lung
OVCAR-4 ovarian = test system: OVCAR-4 ovarian
SNB-75 CNS = test system: SNB-75 CNS
T-47D breast = test system: T-47D breast
UO-31 renal = test system: UO-31 renal

## O=c1[nH]c2ccc(CC(=S)N3CCOCC3)cc2s1
786-0 renal
  TGI: > 100 µM
A498 renal
  TGI: > 100 µM
ACHN renal
  TGI: > 100 µM
BT-549 breast
  TGI: > 100 µM
CAKI-1 renal
  TGI: > 100 µM
CCRF-CEM leukemia
  TGI: > 100 µM
COLO 205 colon
  TGI: > 100 µM
DU-145 prostate
  TGI: > 100 µM
EKVX NSCLC
  TGI: > 100 µM
HCT-116 colon
  TGI: > 100 µM
HCT-15 colon
  TGI: > 100 µM
HL-60(TB) leukemia
  TGI: > 100 µM
HOP-62 NSCLC
  TGI: > 100 µM
HS 578T breast
  TGI: > 100 µM
HT29 colon
  TGI: > 100 µM
IGROV1 ovarian
  TGI: > 100 µM
K-562 leukemia
  TGI: > 100 µM
KM12 colon
  TGI: > 100 µM
LOX IMVI melanoma
  TGI: > 100 µM
M14 melanoma
  TGI: > 100 µM
MALME-3M melanoma
  TGI: > 100 µM
MCF7 breast
  TGI: > 100 µM
MDA-MB-231 breast
  TGI: > 100 µM
MDA-MB-435
  TGI: > 100 µM
MDA-N
  TGI: > 100 µM
MOLT-4 leukemia
  TGI: > 100 µM
NCI-H226 lung
  TGI: > 100 µM
NCI-H23 lung
  TGI: > 100 µM
NCI-H460 lung
  TGI: > 100 µM
NCI/ADR-RES ovarian
  TGI: > 100 µM
OVCAR-3 ovarian
  TGI: > 100 µM
OVCAR-5 ovarian
  TGI: > 100 µM
OVCAR-8 ovarian
  TGI: > 100 µM
PC-3 prostate
  TGI: > 100 µM
RPMI-8226 leukemia
  TGI: > 100 µM
RXF 393 renal
  TGI: > 100 µM
SF-268 CNS
  TGI: > 100 µM
SF-295 CNS
  TGI: > 100 µM
SF-539 CNS
  TGI: > 100 µM
SK-MEL-2 melanoma
  TGI: > 100 µM
SK-MEL-28 melanoma
  TGI: > 100 µM
SK-MEL-5 melanoma
  TGI: > 100 µM
SK-OV-3 ovarian
  TGI: > 100 µM
SN12C renal
  TGI: > 100 µM
SNB-19 CNS
  TGI: > 100 µM
SR leukemia
  TGI: > 100 µM
SW-620 colon
  TGI: > 100 µM
TK-10 renal
  TGI: > 100 µM
U251 CNS
  TGI: > 100 µM
UACC-257 melanoma
  TGI: > 100 µM
UACC-62 melanoma
  TGI: > 100 µM

## O=[N+]([O-])c1ccccc1N=Nc1c(O)[nH]c2ccccc12
786-0 renal
  TGI: 36.1 µM
A498 renal
  TGI: > 61.6 µM
A549 NSCLC
  TGI: > 100 µM
ACHN renal
  TGI: 23.7 µM
BT-549 breast
  TGI: > 100 µM
CAKI-1 renal
  TGI: > 54.7 µM
CCRF-CEM leukemia
  TGI: > 100 µM
COLO 205 colon
  TGI: > 100 µM
DU-145 prostate
  TGI: > 89.8 µM
EKVX NSCLC
  TGI: 97.6 µM
HCC-2998 colon
  TGI: > 100 µM
HCT-116 colon
  TGI: > 54.2 µM
HCT-15 colon
  TGI: > 100 µM
HL-60(TB) leukemia
  TGI: > 100 µM
HOP-62 NSCLC
  TGI: > 48 µM
HS 578T breast
  TGI: > 100 µM
HT29 colon
  TGI: > 100 µM
IGROV1 ovarian
  TGI: > 39.9 µM
K-562 leukemia
  TGI: > 100 µM
KM12 colon
  TGI: > 100 µM
LOX IMVI melanoma
  TGI: > 53 µM
M14 melanoma
  TGI: > 100 µM
MCF7 breast
  TGI: > 100 µM
MDA-MB-231 breast
  TGI: > 47.3 µM
MDA-MB-435
  TGI: > 100 µM
MDA-N
  TGI: > 100 µM
MOLT-4 leukemia
  TGI: > 100 µM
NCI-H226 lung
  TGI: > 59.1 µM
NCI-H23 lung
  TGI: 35.9 µM
NCI-H460 lung
  TGI: > 96.6 µM
NCI-H522 lung
  TGI: > 100 µM
NCI/ADR-RES ovarian
  TGI: > 58.8 µM
OVCAR-3 ovarian
  TGI: 31.7 µM
OVCAR-4 ovarian
  TGI: > 61.1 µM
OVCAR-5 ovarian
  TGI: > 100 µM
OVCAR-8 ovarian
  TGI: > 53.5 µM
PC-3 prostate
  TGI: > 100 µM
RPMI-8226 leukemia
  TGI: > 100 µM
RXF 393 renal
  TGI: > 74.9 µM
SF-268 CNS
  TGI: > 100 µM
SF-295 CNS
  TGI: > 100 µM
SF-539 CNS
  TGI: 23.9 µM
SK-MEL-2 melanoma
  TGI: > 100 µM
SK-MEL-28 melanoma
  TGI: > 100 µM
SK-MEL-5 melanoma
  TGI: > 86.2 µM
SK-OV-3 ovarian
  TGI: > 53.7 µM
SN12C renal
  TGI: > 61.6 µM
SNB-19 CNS
  TGI: > 100 µM
SNB-75 CNS
  TGI: 68.8 µM
SR leukemia
  TGI: > 100 µM
SW-620 colon
  TGI: > 100 µM
T-47D breast
  TGI: > 100 µM
TK-10 renal
  TGI: > 100 µM
U251 CNS
  TGI: > 58.2 µM
UACC-257 melanoma
  TGI: > 100 µM
UACC-62 melanoma
  TGI: > 100 µM
UO-31 renal
  TGI: > 52.8 µM

## COc1cc([C@@H]2c3cc4c(cc3[C@@H](NCCNCCO)[C@H]3COC(=O)[C@H]23)OCO4)cc(OC)c1O
786-0 renal
  TGI: 3.02 µM and 3.48 µM
A498 renal
  TGI: 19.9 µM
A549 NSCLC
  TGI: > 100 µM
ACHN renal
  GI50: 0.856 µM and 2.43 µM
  TGI: 8.68 µM and 21.2 µM
BT-549 breast
  TGI: 7.03 µM and 5.49 µM
CAKI-1 renal
  TGI: 30.1 µM and > 59.5 µM
CCRF-CEM leukemia
  GI50: 0.123 µM
  TGI: 0.567 µM and 0.695 µM
COLO 205 colon
  TGI: 24 µM and 24.5 µM
DU-145 prostate
  GI50: 1.82 µM and 3.88 µM
  TGI: 9.83 µM and > 33.9 µM
EKVX NSCLC
  GI50: 5.36 µM and 13 µM
  TGI: > 100 µM
HCC-2998 colon
  GI50: 3.39 µM and 1.58 µM
  TGI: 32.2 µM and 12.1 µM
HCT-116 colon
  TGI: 44 µM and 32.9 µM
HCT-15 colon
  TGI: > 100 µM
HL-60(TB) leukemia
  GI50: 0.173 µM and 0.0466 µM
HOP-62 NSCLC
  TGI: 5.18 µM and 6.52 µM
HS 578T breast
  TGI: 19.2 µM and 5.4 µM
HT29 colon
  TGI: > 29.9 µM
IGROV1 ovarian
  TGI: 20.2 µM and 12 µM
K-562 leukemia
  GI50: 1.45 µM
  TGI: > 100 µM
KM12 colon
  TGI: > 40.2 µM and 17.5 µM
M14 melanoma
  TGI: 28.1 µM and 20.2 µM
MALME-3M melanoma
  GI50: 2.72 µM and 1.2 µM
  TGI: 24.4 µM and 10.8 µM
MCF7 breast
  GI50: 0.183 µM and 0.0876 µM
  TGI: > 36.7 µM
MDA-MB-231 breast
  TGI: 21.6 µM
MDA-MB-435
  TGI: 35 µM and 31.6 µM
MDA-N
  TGI: 21.4 µM and 28.8 µM
NCI-H226 lung
  TGI: 4.97 µM and 4.5 µM
NCI-H23 lung
  TGI: 9.94 µM and 10.8 µM
NCI-H460 lung
  TGI: 4.49 µM and 3.1 µM
NCI-H522 lung
  GI50: 2.22 µM and 1.05 µM
  TGI: > 22 µM and 6.55 µM
NCI/ADR-RES ovarian
  TGI: > 100 µM
OVCAR-3 ovarian
  GI50: 7.28 µM and 2.31 µM
  TGI: > 66.9 µM and 11.1 µM
OVCAR-4 ovarian
  TGI: 47.4 µM and > 84.8 µM
OVCAR-5 ovarian
  GI50: 14 µM and 5.18 µM
  TGI: 51.2 µM and 25.5 µM
OVCAR-8 ovarian
  TGI: > 22.4 µM and 20.8 µM
PC-3 prostate
  TGI: > 100 µM
RPMI-8226 leukemia
  GI50: 0.46 µM and 0.522 µM
  TGI: 3.84 µM
RXF 393 renal
  TGI: 8.18 µM and 4.94 µM
SF-268 CNS
  GI50: 0.761 µM and 1.59 µM
  TGI: 51.8 µM
SF-295 CNS
  GI50: 1.61 µM and 0.719 µM
  TGI: > 29 µM and 7.12 µM
SF-539 CNS
  GI50: 0.702 µM and 0.171 µM
  TGI: 3.13 µM and 1.04 µM
SK-MEL-2 melanoma
  TGI: > 26.9 µM and 4.89 µM
SK-MEL-28 melanoma
  TGI: 9.5 µM and 9.02 µM
SK-MEL-5 melanoma
  TGI: 5.14 µM and 6.05 µM
SK-OV-3 ovarian
  TGI: 12.4 µM and 8.25 µM
SN12C renal
  GI50: 0.934 µM and 0.331 µM
  TGI: 24.1 µM and 3.19 µM
SNB-19 CNS
  TGI: 19.2 µM and > 32.2 µM
SNB-75 CNS
  TGI: 8.64 µM and 5.94 µM
SR leukemia
  GI50: 0.303 µM
SW-620 colon
  TGI: > 100 µM
T-47D breast
  TGI: 11.9 µM and 8.93 µM
TK-10 renal
  TGI: 33.8 µM and 39.3 µM
U251 CNS
  TGI: 5.35 µM
UACC-257 melanoma
  TGI: > 30.5 µM and 39.9 µM
UACC-62 melanoma
  TGI: 5.34 µM and 3.61 µM
UO-31 renal
  TGI: 50 µM and 39.9 µM
